The values that follow come from patent publication US20190004070A9 (JNC CORPORATION, priority 2012, published 2019).

“Also recorded” adds a separate entry of the source.

Assay [1] has as its system human platelet rich plasma. In words: Agonist-induced platelet aggregation in normal and aspirinized PRP, PAP 8E platelet aggregometer (Example 1). The format is cell-based. The settings on record: for ability to detect the drug in the presence of aspirin: aspirinized PRP, synthetic collagen 8-64 ng/mL; for effect on biological collagen-induced aggregation: Bio/Data and Chrono Log biological collagen; for effect on Bio/Data collagen-induced aggregation: Bio/Data collagen 190 μg/mL; for effect on arachidonic acid-induced aggregation: arachidonic acid 500 μg/mL; for antiplatelet effect in synthetic collagen-induced aggregation at lower concentrations: synthetic collagen 32 ng/mL and lower (32, 16, 8 ng/mL); for effect on 64 ng/mL synthetic collagen-induced aggregation: synthetic collagen 64 ng/mL. On the procedure:
ADP was obtained from Bio/Data Corporation, Horsham, Pa. Each vial was reconstituted with 1 mL of deionized water to make a 100 μM working solution. The final concentration of ADP in the aggregation cuvette was 10 μM.
Arachidonic acid was obtained from Bio/Data Corporation, Horsham, Pa. Each vial was reconstituted with 0.5 mL deionized water to make a 5 mg/mL working solution. The final concentration of arachidonic acid in the aggregation cuvette was 500 μg/mL.
Biological Collagen was obtained from Bio/Data Corporation, Horsham, Pa. Each vial was reconstituted with 0.5 mL deionized water to make a 1.9 mg/mL working solution. The final concentration of Bio/Data collagen in the aggregation cuvette was 190 μg/mL.
Biological Collagen was obtained from Chrono Log Corporation, Havertown, Pa. as a 1 mg/mL solution. A working solution of 100 μg/mL was made by dilution with physiologic saline. The final concentration of Chrono Log collagen in the aggregation cuvette was 10 μg/mL.
Synthetic collagen was provided by JNC Corporation, Yokohama, Japan at working concentrations of 80, 160, 320 and 640 ng/mL. The final concentrations of synthetic collagen in the aggregation cuvette were 64, 32, 16 and 8 ng/mL.
Approval for the collection of whole blood from healthy human volunteers was granted from the Institutional Review Board of the Health Sciences Division of Loyola University Chicago. Whole blood was drawn using a double syringe technique from the antecubital vein and anticoagulated by the addition of 1 part 3.2% sodium citrate to (9 parts blood to 1 part citrate). Citrated blood was centrifuged at 80×g at room temperature for 15 minutes to make platelet rich plasma (PRP). Supernatant PRP was collected and kept at room temperature in capped tubes. The remaining citrated blood was recentrifuged at 1,100×g for 15 minutes to make platelet poor plasma (PPP). The platelet count of the PRP was determined using an ICHOR II Analyzer, Helena Laboratories, Beaumont, Tex. Platelet count in the PRP was adjusted to 250,000-300,000/μl by the addition of homologous PPP.
Six blood donors were used for this study. Each was drawn on separate days for the ‘non-aspirinized’ and ‘aspirinized’ portions of the protocol. For the ‘non-aspirinized’ portion of the protocol, one donor ([…]) was excluded from the final analysis as the aggregation responses were markedly different from that of the other 5 donors.
Platelet aggregation was measured using a PAP 8E platelet aggregometer (Bio/Data). Each well was blanked using PPP. 25 μl of saline or antiplatelet drug and 200 μl of PRP were added to cuvettes containing magnetic stir bars and incubated for three minutes to equilibrate the sample to 37° C. 25 μl of agonist was added to each cuvette and the aggregation profile was monitored until a plateau was achieved. Results were tabulated in terms of maximal aggregation level. Under some reaction conditions, reversible aggregation was observed. This was most commonly observed with ADP and arachidonic acid-induced aggregation in the presence of ticagrelor or cilostazol. Final aggregation levels were also tabulated.

The next assay deals with platelet aggregation. The settings on record: Aspirin doses greater than 100 mg; cited from earlier work.
Assay [2] deals with PRP samples of healthy donors. In words: LTAAs using synthetic collagen with anti-platelet medication added to the PRP sample (Example 2). The format is cell-based. Particulars: synthetic collagen 12.5, 25, 50, 100 ng/mL. As for the experimental part: Two healthy donors supplied the PRP samples. A panel of four different synthetic collagen concentrations were tested (12.5 ng/mL, 25 ng/mL, 50 ng/mL and 100 ng/mL Abciximab was added to the each of the four panels of different synthetic collagen concentrations. In one panel, saline was added as the control to each of the four synthetic collagen concentrations. In the second panel, 12.5 μg/mL (micrograms/mL) of abciximab was added to each of the four synthetic collagen concentrations. In a third panel, 25 μg/mL of abciximab was added to each of the four synthetic collagen concentrations. In a fourth panel, 50 μg/mL of abciximab was added to each of the four synthetic collagen concentrations. LTAAs were run for each and the PA, PS, SA, SS AUC, LP, DA, MA and FA was measured for each. The tests were run on each of the donors' samples.
Two healthy donors supplied the PRP samples. […] LTAAs were run for each and the PA, PS, SA, SS AUC, LP, DA, MA and FA was measured for each. […]

The mark [3] stands for this setting: non-aspirinized plasma, ADP 10 μM.
Where [4] appears, read: non-aspirinized plasma, Chrono Log collagen 10 μg/mL.

With `CC(=O)Oc1ccccc1C(=O)O` [aspirin, 2-acetyloxybenzoic acid], the “effect of aspirin on ADP-induced aggregation” value in assay [1] (10 μM ADP) is “minimally affected”. For the same molecule, in assay [1] (10 μg/mL Chrono Log collagen), the “effect of aspirin on Chrono Log collagen-induced aggregation” value is reported as “did not inhibit; also recorded: not inhibited”. For the same molecule, the “effect of aspirin on Bio/Data collagen-induced aggregation” value in assay [1] (0.19 mg/mL Bio/Data collagen) is “minimally affected; also recorded: not inhibited”. For the same molecule, the “effect of aspirin on synthetic collagen-induced aggregation” value in assay [1] (all synthetic collagen concentrations tested (8-64 ng/mL)) was “lower levels of aggregation; also recorded: higher sensitivity to aspirin”. Besides, the “arachidonic acid-induced aggregation in aspirinized plasma” value in assay [1] (aspirin taken orally <48 hours before draw or 100 μM in vitro, no other drug) was below 20%. Further, the “response to arachidonic acid in aspirinized plasma” value in assay [1] (aspirin taken orally or 100 μM in vitro) was “nearly completely blunted”.

In the case of `O=C1CCc2cc(OCCCCc3nnnn3C3CCCCC3)ccc2N1` [cilostazol], in assay [1], the “ability to detect the drug in the presence of aspirin” value (“ability to detect the drug” for short) is given as “negated the ability to detect cilostazol; also recorded: affected the ability”. Also, the “effect on ADP-induced aggregation” value in assay [1] (setting [3]) is on record as “minimally affected; also recorded: weaker, concentration-dependent inhibition”. Also, in assay [1] (non-aspirinized plasma), the “effect on biological collagen-induced aggregation” value was “unaffected”, the “effect on Bio/Data collagen-induced aggregation” value is recorded as “did not inhibit”, the “effect on arachidonic acid-induced aggregation” value is given as “strongly inhibited” and the “antiplatelet effect in synthetic collagen-induced aggregation at lower concentrations” value (“antiplatelet effect … at lower concentrations” for short) was “could be observed; also recorded: readily apparent”. Also, the “effect on 64 ng/mL synthetic collagen-induced aggregation” value in assay [1] (non-aspirinized plasma) is given as “did not inhibit; also recorded: minimal effect”. The “effect on Chrono Log collagen-induced aggregation” value in assay [1] (setting [4]) is “did not inhibit”.

For the molecule `CCCSc1nc(N[C@@H]2C[C@H]2c2ccc(F)c(F)c2)c2nnn([C@@H]3C[C@H](OCCO)[C@@H](O)[C@H]3O)c2n1` [ticagrelor, (1S,2S,3R,5S)-3-[7-[[(1R,2S)-2-(3,4-difluorophenyl)cyclopropyl]amino]-5-propylsulfanyltriazolo[4,5-d]pyrimidin-3-yl]-5-(2-hydroxyethoxy)cyclopentane-1,2-diol], the “ability to detect the drug” value in assay [1] is “affected the ability; also recorded: can be detected”. In addition, in assay [1] (aspirinized plasma), the “anti-platelet effect in 8 ng/mL synthetic collagen-induced aggregation” value is listed as “no longer observed”; the “anti-platelet effect in 16 and 32 ng/mL synthetic collagen-induced aggregation” value is reported as “reduced”; the “anti-platelet effect in arachidonic acid-induced aggregation” value is “no longer observed”. Also, the “effect of adding aspirin on the drug's ADP-induced aggregation response” value in assay [1] (aspirinized plasma, ADP 10 μM) is “did not affect”. The “effect on ADP-induced aggregation” value in assay [1] (setting [3]) is given as “strongly inhibited; also recorded: inhibited”. In assay [1] (non-aspirinized plasma), the “effect on biological collagen-induced aggregation” value was “little effect”; the “effect on Bio/Data collagen-induced aggregation” value is on record as “Neither Bio/Data collagen, Chrono Log collagen nor 64 ng/mL synthetic collagen was markedly impacted”; the “effect on arachidonic acid-induced aggregation” value is recorded as “inhibited to a similar extent”; the “antiplatelet effect … at lower concentrations” value is “could be identified; also recorded: readily apparent”. The “effect on 64 ng/mL synthetic collagen-induced aggregation” value in assay [1] (non-aspirinized plasma) is reported as “Neither Bio/Data collagen, Chrono Log collagen nor 64 ng/mL synthetic collagen was markedly impacted; also recorded: minimal effect”. For the same molecule, the “effect on Chrono Log collagen-induced aggregation” value in assay [1] (setting [4]) was “Neither Bio/Data collagen, Chrono Log collagen nor 64 ng/mL synthetic collagen was markedly impacted”. Further, the “effect of aspirin dose on ticagrelor's inhibition of platelet aggregation” value in the assay on platelet aggregation was “reduce the ability of ticagrelor to inhibit platelet aggregation”. The “detection of the drug by synthetic collagen LTAA” value in assay [2] is “the assays worked with both”.

B1: abciximab: Immunoglobulin Fragment Fab Fragment Chimeric monoclonal antibody 7E3 (GP IIbIIIa receptor blocker) (antibody, chains of the INN, looked up, V domains shown)
VH: EVQLQQSGTVLARPGASVKMSCEASGYTFTNYWMHWVKQRPGQGLEWIGAIYPGNSDTSYIQKFKGKAKLTAVTSTTSVYMELSSLTNEDSAVYYCTLYDGYYVFAYWGQGTLVTVSA
VL: EIVLTQSPVTLSVTPGDSVSLSCRASRDISNNLHWFQQTSHESPRLLIKYASQSMSGIPSRFSGSGSGTDFTLSINSVETEDFGMYFCQQTNSWPYTFGGGTKLEIK
modifications: Fab
With B1, in assay [1] (aspirinized PRP compared with non-aspirinized, Chrono Log collagen 10 μg/mL), the “inhibition of Chrono Log collagen-induced aggregation” value is on record as “stronger inhibition”. Moreover, in assay [1], the “ability to detect the drug” value is reported as “readily detectable”. For the same molecule, in assay [1] (aspirinized plasma), the “anti-platelet effect in arachidonic acid-induced aggregation” value is recorded as “complete inhibition”. For the same molecule, in assay [1] (non-aspirinized plasma), the “concentration at which inhibition of Bio/Data collagen-induced aggregation was observed” value came to 5 µg/mL, the “concentration at which inhibition of Chrono Log collagen-induced aggregation was observed” value is given as 5 μg/mL, the “effect on biological collagen-induced aggregation” value is listed as “inhibited” and the “effect on arachidonic acid-induced aggregation” value was “most sensitive; also recorded: inhibited”. Also, in assay [1] (non-aspirinized plasma), the “antiplatelet effect … at lower concentrations” value was “most sensitive; also recorded: readily apparent” and the “effect on 64 ng/mL synthetic collagen-induced aggregation” value is given as “inhibited by abciximab to a comparable degree”. For the same molecule, the “effect on ADP-induced aggregation” value in assay [1] (setting [3]) is given as “inhibited”. For the same molecule, the “inhibition of agonist-induced aggregation” value in assay [1] (non-aspirinized plasma, concentration range tested 1.25-5 μg/mL) is listed as “concentration-dependent inhibition”. In addition, in assay [2], the “detection of the drug by synthetic collagen LTAA” value is reported as “the assays worked with both”.
